Test results: patent US5126436A (priority 1989, dated 1992)
Converted amounts (≈) assume the structure as drawn.

How the values were obtained:
Escherichia coli BE 1186 = assay type: cell-based; conditions: BE1186, 20 μg/disc (diameter 8 mm), read-out: Inhibition Circle
Description: (§1) The value in paretheses in the table denotes a partial inhibition.

Alternaria mali IFO 8984 = assay type: cell-based; conditions: IFO8984, 20 μg/disc (diameter 8 mm), read-out: Inhibition Circle
Description: as §1

[1] = tested on: Pseudomonas aeruginosa IFO 13130; assay type: cell-based; conditions: IFO13130, 20 μg/disc (diameter 8 mm), read-out: Inhibition Circle
Description: as §1

[2] = tested on: Candida albicans IFO 1594; assay type: cell-based; conditions: IFO1594, 20 μg/disc (diameter 8 mm), read-out: Inhibition Circle
Description: as §1

Chlorella vulgaris = assay type: cell-based; conditions: 20 μg/disc (diameter 8 mm), read-out: Inhibition Circle
Description: as §1

[3] = tested on: Colletotrichum lagenarium IFO 7513; assay type: cell-based; conditions: Colletotrichum orbiculare, IFO7513; 20 μg/disc (diameter 8 mm); value in parentheses denotes a partial inhibition; read-out: Inhibition Circle
Description: as §1

Escherichia coli AB 1157 = assay type: cell-based; conditions: AB1157, 20 μg/disc (diameter 8 mm), read-out: Inhibition Circle
Description: as §1

Solubility = assay type: physicochemical
HeLa = test: Cell-killing activity; assay type: cell-based; conditions: Homo sapiens; HeLa cells; read-out: ID50 (concentration at which 50% of cancer cells are killed)
KB = test: Cell-killing activity; assay type: cell-based; conditions: Homo sapiens; KB cells; read-out: ID50 (concentration at which 50% of cancer cells are killed)
[4] = tested on: Pyricularia oryzae IFO 5994; test: microbe, parasite or virus in culture; assay type: cell-based; conditions: IFO5994, read-out: Inhibition Circle

`CC=C(C)C(O)C(C)C=C(C)C=CCC(C)=CCc1nc(OC)c(OC)c(OC2OC(C)C(O)C(O)C2O)c1C` (stereo not drawn) gave a zone of inhibition at 20 µg/disc (Escherichia coli BE 1186) of 0 mm, a zone of inhibition at 20 µg/disc (Alternaria mali IFO 8984) of 0 mm and a zone of inhibition at 20 µg/disc [1] of 0 mm. For the same molecule, the zone of inhibition at 20 µg/disc [2] was 0 mm, the zone of inhibition at 20 µg/disc (Chlorella vulgaris) was 0 mm and the zone of inhibition at 20 µg/disc [3] was 13.3 mm. For the same molecule, the zone of inhibition at 20 µg/disc (Escherichia coli AB 1157) was 0 mm, the Solubility (Solubility; chloroform, dimethyl sulfoxide, methanol, acetone) was “Soluble in chloroform, dimethyl sulfoxide, methanol and acetone” and the Solubility (Solubility; n-hexane, water) was “Insoluble in n-hexane and water”. It also gave an IC50 (HeLa) of 2.8 µg/mL (≈ 4.98 µM), an IC50 (KB) of 0.74 µg/mL (≈ 1.32 µM) and a zone of inhibition at 20 µg/disc [4] of 19.1 mm.
